Measurements published in ChEMBL document CHEMBL1125335 (J Med Chem, 1992).

What was measured:
[1] = Ratio of stimulatory activity in right atrium to relaxant activity in tracheal muscle; type: functional, Cardiac atrium
[2] = Inhibition of c-AMP phosphodiesterase activity in guinea pig tracheal muscle
[3] = molecular target: T1, Adenosine receptor A1 (Cavia porcellus) (UniProt P47745); assay: Positive chronotropic effect on isolated guinea pig right atrium (heart stimulation).; type: functional, tissue-based; settings: Cardiac atrium
T1 sequence (whole entry): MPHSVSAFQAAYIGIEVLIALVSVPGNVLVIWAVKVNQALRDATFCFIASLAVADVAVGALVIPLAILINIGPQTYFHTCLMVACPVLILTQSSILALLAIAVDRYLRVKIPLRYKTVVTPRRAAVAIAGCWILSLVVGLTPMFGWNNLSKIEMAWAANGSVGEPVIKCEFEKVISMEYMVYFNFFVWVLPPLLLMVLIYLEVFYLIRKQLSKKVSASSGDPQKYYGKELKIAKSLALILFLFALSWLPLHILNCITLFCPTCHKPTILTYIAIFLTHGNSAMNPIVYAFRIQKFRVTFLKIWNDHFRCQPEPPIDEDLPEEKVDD

[4] = molecular target: T2, Adenosine receptor A1 (Cavia porcellus, UniProt P47745); assay: Affinity against adenosine A1 receptor in the brain membranes by the displacement of [3H]CPX.; type: cell membranes, Membrane
T2 sequence (P47745 whole entry): T1 sequence (whole entry)

[5] = molecular target: Adenosine receptor A2a (Cavia porcellus, UniProt P46616); assay: Affinity against adenosine A2 receptor in the brain membranes measured by the displacement of [3H]-CPX; type: cell membranes, Membrane
[6] = Inhibitory activity against c-AMP phosphodiesterase in guinea pig tracheal muscle.
[7] = system: Cavia porcellus; assay: In vivo reduction of acetylcholine-induced bronchospasm in guinea pigs by intraduodenal dose; type: functional
[8] = system: Cavia porcellus; assay: In vivo positive chronotropic effect on isolated guinea pig right atrium; type: functional, Cardiac atrium
[9] = molecular target: Adenosine A2 receptor (Homo sapiens, UniProt P29275+P29274); assay: Affinity against adenosine A2 receptor in brain membranes by displacement of [3H]CPX; type: cell membranes, Cavia porcellus, Membrane

Adenosine receptor A2a, sequence (P46616 whole entry): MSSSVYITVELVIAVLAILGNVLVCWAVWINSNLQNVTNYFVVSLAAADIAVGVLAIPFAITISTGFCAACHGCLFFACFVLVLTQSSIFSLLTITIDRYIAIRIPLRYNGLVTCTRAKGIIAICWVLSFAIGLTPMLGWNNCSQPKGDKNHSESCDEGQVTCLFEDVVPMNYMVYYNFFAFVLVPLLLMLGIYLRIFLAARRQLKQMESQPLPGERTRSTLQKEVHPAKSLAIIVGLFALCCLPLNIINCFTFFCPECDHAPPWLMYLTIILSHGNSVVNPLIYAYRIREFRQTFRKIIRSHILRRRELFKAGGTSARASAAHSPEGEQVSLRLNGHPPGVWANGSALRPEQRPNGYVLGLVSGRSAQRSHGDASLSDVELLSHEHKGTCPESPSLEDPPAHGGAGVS

Row | EC15 [3] [µM] | Ki [4] [µM] | Ki [5] [µM] | Compound | Broncho selectivity [1] | also measured
1 | > 100 | 40.4 |  | CCCn1c(=O)[nH]c(=O)c2c1ncn2CC | 12 | Ki [6]: 13.2 µM
2 | > 100 | 12.1 |  | CCCCn1cnc2c1c(=O)[nH]c(=O)n2CCC | 7.1 | Ki [2]: 36.5 µM
3 | > 100 | 90.6 |  | CCCn1c(=O)[nH]c(=O)c2c1ncn2C |  | 
4 | > 100 | 18.2 |  | CCCn1cnc2c1c(=O)[nH]c(=O)n2CCC | >6.3 | Ki [2]: 35 µM
5 | 17 | 21.4 |  | CCCCn1c(=O)[nH]c(=O)c2[nH]cnc21 | 2.1 | Ki [2]: 32 µM
6 | > 100 | 6 |  | CCCCn1c(=O)c2c(ncn2C)n(CCC)c1=O | 71.4 | ED50 [7]: 2.34 mg/kg; Ki [6]: 30.1 µM; ED15 [8]: >100 mg kg-1 i.d.
7 | 3.3 | 1.9 | 8 | CCCn1c(=O)n(C)c(=O)c2[nH]cnc21 | 2.1 | Ki [2]: 10.6 µM
8 | > 100 | 14.2 |  | CCCn1c(=O)n(C)c(=O)c2c1ncn2CC |  | 
9 | 45.4 | 14.5 | 20.1 | CCCn1c(=O)n(C)c(=O)c2c1ncn2C |  | 
10 | 45.8 | 7.7 |  | CCCn1c(=O)c2c(ncn2C)n(CCC)c1=O |  | 
11 | 18.3 |  |  | CCCn1c(=O)[nH]c(=O)c2nc[nH]c21 [ENPROFYLLINE] |  | ED50 [7]: 25.7 mg/kg; ED15 [8]: 95.1 mg kg-1 i.d.
12 | 45.2 | 9.4 | 43.8 | CCCn1cnc2c1c(=O)n(C)c(=O)n2CCC | 9 | Ki [2]: 30.8 µM
13 | 30 | 11.8 |  | CCCn1c(=O)n(CC)c(=O)c2c1ncn2C | 4 | Ki [6]: 19.4 µM

Continued, compound first:

Row | Compound | EC15 [3] [µM] | Ki [4] [µM] | Ki [5] [µM] | Broncho selectivity [1] | also measured
14 | Cn1c(=O)[nH]c2[nH]cnc2c1=O [1-METHYLXANTHINE] | > 100 |  |  | 1.3 | Ki [2]: 163 µM
15 | CCn1c(=O)[nH]c(=O)c2[nH]cnc21 | > 100 | 117 |  |  | 
16 | CCCCn1c(=O)c2[nH]cnc2n(CCC)c1=O |  | 0.02 | 4.1 |  | 
17 | CCCCn1c(=O)[nH]c2[nH]cnc2c1=O | > 100 |  |  |  | 
18 | CCCn1c(=O)c2[nH]cnc2n(C)c1=O |  | 3.4 |  |  | 
19 | O=c1[nH]c(=O)c2nc[nH]c2[nH]1 | > 100 |  |  |  | 
20 | Cn1c(=O)c2[nH]cnc2n(C)c1=O | 62 |  |  |  | 
21 | O=c1[nH]c(=O)c2[nH]cnc2[nH]1 [XANTHINE] |  | > 200 |  |  | 
22 | Cn1c(=O)c2nc[nH]c2n(C)c1=O.O [THEOPHYLLINE] |  |  |  |  | ED50 [7]: 23.4 mg/kg; ED15 [8]: 20.2 mg kg-1 i.d.
23 | CCCn1c(=O)c2nc[nH]c2n(C)c1=O | 36.2 |  |  | 3.7 | Ki [2]: 26 µM
24 | Cn1c(=O)[nH]c(=O)c2[nH]cnc21 [3-METHYLXANTHINE] | > 100 |  |  |  | Ki [9]: 133 µM
25 | CCn1c(=O)n(C)c(=O)c2[nH]cnc21 | 28.5 | 7.6 | 25.4 |  | 
26 | CCn1c(=O)c2nc[nH]c2n(C)c1=O | 34 | 9.8 |  |  | 
27 | CCn1c(=O)[nH]c2nc[nH]c2c1=O |  | 9.8 | 34 |  | 
28 | CCCCn1c(=O)[nH]c2nc[nH]c2c1=O |  | 3 | 15.4 |  | 
29 | CCCCn1c(=O)c2nc[nH]c2n(C)c1=O | 90.5 | 4.3 |  |  | 
30 | CCCCn1c(=O)c2nc[nH]c2n(CCC)c1=O | 29 |  |  |  | ED50 [7]: 2.87 mg/kg; ED15 [8]: >100 mg kg-1 i.d.
31 | CCCn1c(=O)[nH]c2nc[nH]c2c1=O |  | 3.3 | 23.4 |  | 
32 | CCCCn1c(=O)n(C)c(=O)c2[nH]cnc21 | 2.2 | 1.9 | 4.8 | 1.7 | Ki [6]: 10.2 µM
33 | CCCn1c(=O)n(CC)c(=O)c2[nH]cnc21 | 6.1 | 1.4 | 3.9 | 4.7 | Ki [2]: 24.1 µM
34 | CCn1c(=O)[nH]c2[nH]cnc2c1=O | > 100 |  |  |  | 
35 | Cn1c(=O)[nH]c2nc[nH]c2c1=O [1-METHYLXANTHINE] |  | 11.5 | 67.1 |  | 
36 | CCCCn1cnc2c1c(=O)n(C)c(=O)n2CCC | > 100 | 7.3 | 15.3 | 32.3 | Ki [2]: > 200 µM
37 | CCCn1c(=O)c2nc[nH]c2n(CCC)c1=O | 20 | 0.2 |  |  | 
38 | CCCn1c(=O)[nH]c2[nH]cnc2c1=O | > 100 |  |  |  | 
